Reference: US20240182531A1, “KV1.3 Blockers” (priority 2021, published 2024)
Where a SMILES comes first, the peptide text is derived from it. Bridges are numbered along the chain shown (N, C = ends). [ ]: non-standard residue; d: D form. Nle = CCCC[C@H](N)C(=O)O; Abu = CC[C@H](N)C(=O)O

These compounds were tested against Rat whole blood (Rattus norvegicus, UniProt P15384). Details: IL-17A release, thapsigargin, 24 Hr, at least 2 replicates.
Sequence of Rat whole blood (P15384 whole entry): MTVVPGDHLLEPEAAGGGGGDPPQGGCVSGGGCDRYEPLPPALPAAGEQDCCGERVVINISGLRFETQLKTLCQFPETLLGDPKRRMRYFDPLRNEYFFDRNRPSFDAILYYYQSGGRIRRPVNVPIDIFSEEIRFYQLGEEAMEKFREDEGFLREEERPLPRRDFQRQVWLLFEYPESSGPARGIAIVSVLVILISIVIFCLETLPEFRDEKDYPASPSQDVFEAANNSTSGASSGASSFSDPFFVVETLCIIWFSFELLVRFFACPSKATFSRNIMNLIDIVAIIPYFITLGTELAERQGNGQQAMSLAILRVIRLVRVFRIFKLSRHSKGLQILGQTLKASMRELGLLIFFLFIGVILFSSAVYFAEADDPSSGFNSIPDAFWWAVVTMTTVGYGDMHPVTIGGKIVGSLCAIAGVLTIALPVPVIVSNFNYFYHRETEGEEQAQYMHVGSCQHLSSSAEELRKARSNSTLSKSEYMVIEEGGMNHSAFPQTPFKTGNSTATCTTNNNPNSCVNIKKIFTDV
Type: cell-based
With “H-S[Nle]D[Nle]RCSASVECKQKCLKAIGSIFGKC[Nle]NKKCKCYPR-OH (cysteine pairing not given here) [compound 80]” the IC50 was 0.52 nM.
With “H-N[Nle]D[Nle]RCSASVECQQKCLKAIGSIFGKC[Nle]NKKCKCYPR-NH2 (cysteine pairing not given here) [compound 48]” the IC50 was 1.1 nM.
With `CCCC[C@@H]1NC(=O)[C@@H]2CSSC[C@H](NC(=O)[C@H](CCCNC(=N)N)NC(=O)[C@H](CCCC)NC(=O)[C@H](CC(=O)O)NC(=O)[C@H](CCCC)NC(=O)[C@@H](N)C(C)C)C(=O)N[C@@H](CO)C(=O)N[C@@H](C)C(=O)N[C@@H](CO)C(=O)N[C@@H](C(C)C)C(=O)N[C@@H](CCC(=O)O)C(=O)N[C@H]3CSSC[C@H](NC(=O)[C@H](CCCCN)NC(=O)[C@H](CCCCN)NC(=O)[C@H](CC(N)=O)NC1=O)C(=O)N[C@@H](CCCCN)C(=O)N[C@H](C(=O)N[C@@H](Cc1ccc(O)cc1)C(=O)N1CCC[C@H]1C(=O)N[C@@H](CCCNC(=N)N)C(N)=O)CSSC[C@H](NC(=O)[C@H](CCCCN)NC(=O)[C@H](CCC(N)=O)NC(=O)[C@H](CCCCN)NC3=O)C(=O)N[C@@H](CC(C)C)C(=O)N[C@@H](CCCCN)C(=O)N[C@@H](C)C(=O)N[C@@H]([C@@H](C)CC)C(=O)NCC(=O)N[C@@H](CO)C(=O)N[C@@H]([C@@H](C)CC)C(=O)N[C@@H](Cc1ccccc1)C(=O)NCC(=O)N[C@@H](CCCCN)C(=O)N2` [compound 67] (H-V[Nle]D[Nle]RCSASVECKQKCLKAIGSIFGKC[Nle]NKKCKCYPR-NH2; disulfide 6-27, 12-32, 16-34) the IC50 was 0.98 nM.
For “H-P[Nle]D[Nle]RCSASVECKQKCLKAIGCIFGKC[Nle]NKKCKCYPC-OH (cysteine pairing not given here) [compound 86]”, the IC50 was 1.1 nM.
For “NMDMRCSASVECKQKCLKAIHSIFGKCMNKKCKCYPR [compound 37]”, the IC50 was 0.7 nM.
Work on `CCCC[C@@H]1NC(=O)[C@@H]2CSSC[C@H](NC(=O)[C@H](CCCNC(=N)N)NC(=O)[C@H](CCCC)NC(=O)[C@H](CC(=O)O)NC(=O)[C@H](CCCC)NC(=O)[C@@H](N)Cc3ccc(O)cc3)C(=O)N[C@@H](CO)C(=O)N[C@@H](C)C(=O)N[C@@H](CO)C(=O)N[C@@H](C(C)C)C(=O)N[C@@H](CCC(=O)O)C(=O)N[C@H]3CSSC[C@H](NC(=O)[C@H](CCCCN)NC(=O)[C@H](CCCCN)NC(=O)[C@H](CC(N)=O)NC1=O)C(=O)N[C@@H](CCCCN)C(=O)N[C@H](C(=O)N[C@@H](Cc1ccc(O)cc1)C(=O)N1CCC[C@H]1C(=O)N[C@@H](CCCNC(=N)N)C(N)=O)CSSC[C@H](NC(=O)[C@H](CCCCN)NC(=O)[C@H](CCC(N)=O)NC(=O)[C@H](CCCCN)NC3=O)C(=O)N[C@@H](CC(C)C)C(=O)N[C@@H](CCCCN)C(=O)N[C@@H](C)C(=O)N[C@@H]([C@@H](C)CC)C(=O)NCC(=O)N[C@@H](CO)C(=O)N[C@@H]([C@@H](C)CC)C(=O)N[C@@H](Cc1ccccc1)C(=O)NCC(=O)N[C@@H](CCCCN)C(=O)N2` [compound 65] (H-Y[Nle]D[Nle]RCSASVECKQKCLKAIGSIFGKC[Nle]NKKCKCYPR-NH2; disulfide 6-27, 12-32, 16-34) yielded an IC50 of 1.1 nM.
With “H-S[Nle]D[Nle]RCSASVECKQKCLKAIGSIFGKCMNKKCKC[F(4-NO2)]PR-NH2 [compound 88]” the IC50 was 1.3 nM.
For “H-P[Nle]E[Nle]RCSASVECKQKCLLAIGSIFGKC[Nle]NKKCKCYPR-OH (cysteine pairing not given here) [compound 93]”, the IC50 was 0.5 nM.
Compound “H-S[Nle]D[Nle]RCSASVECKQKCLKAIGSIFGKCMNKKCKC[F(4-CH3)]PR-NH2 [compound 89]” has an IC50 of 0.54 nM.
With `CCCC[C@H](NC(=O)[C@@H]1CCCN1)C(=O)N[C@@H](CC(=O)O)C(=O)N[C@@H](CCCC)C(=O)N[C@@H](CCCNC(=N)N)C(=O)N[C@H]1CSSC[C@@H]2NC(=O)[C@H](CCCCN)NC(=O)CNC(=O)[C@H](Cc3ccccc3)NC(=O)[C@H]([C@@H](C)CC)NC(=O)[C@@H]3CSSC[C@@H](C(N)=O)NC(=O)[C@@H]4CCCN4C(=O)[C@H](Cc4ccc(O)cc4)NC(=O)[C@@H]4CSSC[C@H](NC(=O)[C@H](CCCCN)NC(=O)[C@H](CCC(N)=O)NC(=O)[C@H](CCCCN)NC(=O)[C@H](CSSC[C@H](NC(=O)[C@H](CCCCN)NC(=O)[C@H](CCCCN)NC(=O)[C@H](CC(N)=O)NC(=O)[C@H](CCCC)NC2=O)C(=O)N[C@@H](CCCCN)C(=O)N4)NC(=O)[C@H](CCC(=O)O)NC(=O)[C@H](C(C)C)NC(=O)[C@H](CO)NC(=O)[C@H](C)NC(=O)[C@H](CO)NC1=O)C(=O)N[C@@H](CC(C)C)C(=O)N[C@@H](CCCCN)C(=O)N[C@@H](C)C(=O)N[C@@H]([C@@H](C)CC)C(=O)NCC(=O)N3` [compound 81] (H-P[Nle]D[Nle]RCSASVECKQKCLKAIGCIFGKC[Nle]NKKCKCYPC-NH2; disulfide 6-27, 12-32, 16-34, 22-37) the IC50 was 0.81 nM.
In the case of “H-S[Nle]D[Nle]RCSASVECKQKCLKAIGSIFGKCMNKKCKC[F(4-F)]PR-NH2 [compound 87]”, the IC50 is reported as 0.34 nM.
With “H-S[Nle]D[Nle]RCSASVECKQKCLKAIGSIFG[homo-Lys]CMNKKCKCYPR-NH2 [compound 69]” the IC50 was 2.7 nM.
“LRCSASVECKQKCLAAIGSIFGKCMNKKCKCYPR [compound 105]” was tested, and the IC50 was 0.36 nM.
For “H-S[Nle]D[Nle]RCSASVECKQKCLVAIGSIFGKCMNKKCKCYPR-NH2 (cysteine pairing not given here) [compound 77]”, the IC50 was 0.39 nM.
Work on “H-S[Nle]D[Nle]RCSASVECVQKCLKAIGSIFGKCMNKKCKCYPR-NH2 (cysteine pairing not given here) [compound 72]” yielded an IC50 of 0.47 nM.
For “H-N[Nle]D[Nle]RCSASVECEQKCLKAIGSIFGKC[Nle]NKKCKCYPR-NH2 (cysteine pairing not given here) [compound 47]”, the IC50 was 0.99 nM.
“H-P[Nle]D[Nle]RCSASVECKEKCL[homo-Gln]AIGSIFGKC[Nle]NKKCKCYPR-NH2 [compound 83]” showed an IC50 of 1.4 nM.
Compound `CCCC[C@@H]1NC(=O)[C@@H]2CSSC[C@H](NC(=O)[C@H](CCCNC(=N)N)NC(=O)[C@H](CCCC)NC(=O)[C@H](CC(=O)O)NC(=O)[C@H](CCCC)NC(=O)[C@@H](N)CO)C(=O)N[C@@H](CO)C(=O)N[C@@H](C)C(=O)N[C@@H](CO)C(=O)N[C@@H](C(C)C)C(=O)N[C@@H](CCC(=O)O)C(=O)N[C@H]3CSSC[C@H](NC(=O)[C@H](CCCCN)NC(=O)[C@H](CCCCN)NC(=O)[C@H](CC(N)=O)NC1=O)C(=O)N[C@@H](CCCCN)C(=O)N[C@H](C(=O)N[C@@H](Cc1ccc(O)cc1)C(=O)N1CCC[C@H]1C(=O)N[C@@H](CCCNC(=N)N)C(N)=O)CSSC[C@H](NC(=O)[C@H](CCCCN)NC(=O)[C@H](CCC(N)=O)NC(=O)[C@H](CCCCN)NC3=O)C(=O)N[C@@H](CC(C)C)C(=O)N[C@@H](CCCCN)C(=O)N[C@@H](C)C(=O)N[C@@H]([C@@H](C)CC)C(=O)NCC(=O)N[C@@H](CO)C(=O)N[C@@H]([C@@H](C)CC)C(=O)N[C@@H](Cc1ccccc1)C(=O)NCC(=O)N[C@@H](CCCCN)C(=O)N2` [compound 66] (H-S[Nle]D[Nle]RCSASVECKQKCLKAIGSIFGKC[Nle]NKKCKCYPR-NH2; disulfide 6-27, 12-32, 16-34) has an IC50 of 0.47 nM.
With “H-S[Nle]D[Nle]RCSASVECKQKCLKAIGSIFGKCMNKKCKCYQ-NH2 (cysteine pairing not given here) [compound 74]” the IC50 was 1.6 nM.
`CCCC[C@@H]1NC(=O)[C@@H]2CSSC[C@H](NC(=O)[C@H](CCCNC(=N)N)NC(=O)[C@H](CCCC)NC(=O)[C@H](CC(=O)O)NC(=O)[C@H](CCCC)NC(=O)[C@@H](N)Cc3c[nH]cn3)C(=O)N[C@@H](CO)C(=O)N[C@@H](C)C(=O)N[C@@H](CO)C(=O)N[C@@H](C(C)C)C(=O)N[C@@H](CCC(=O)O)C(=O)N[C@H]3CSSC[C@H](NC(=O)[C@H](CCCCN)NC(=O)[C@H](CCCCN)NC(=O)[C@H](CC(N)=O)NC1=O)C(=O)N[C@@H](CCCCN)C(=O)N[C@H](C(=O)N[C@@H](Cc1ccc(O)cc1)C(=O)N1CCC[C@H]1C(=O)N[C@@H](CCCNC(=N)N)C(N)=O)CSSC[C@H](NC(=O)[C@H](CCCCN)NC(=O)[C@H](CCC(N)=O)NC(=O)[C@H](CCCCN)NC3=O)C(=O)N[C@@H](CC(C)C)C(=O)N[C@@H](CCCCN)C(=O)N[C@@H](C)C(=O)N[C@@H]([C@@H](C)CC)C(=O)NCC(=O)N[C@@H](CO)C(=O)N[C@@H]([C@@H](C)CC)C(=O)N[C@@H](Cc1ccccc1)C(=O)NCC(=O)N[C@@H](CCCCN)C(=O)N2` [compound 64] (H-H[Nle]D[Nle]RCSASVECKQKCLKAIGSIFGKC[Nle]NKKCKCYPR-NH2; disulfide 6-27, 12-32, 16-34) showed an IC50 of 1.2 nM.
“H-S[Nle]D[Nle]RCSASVECKEKCLQAIGSIFGKC[Nle]NKKCKCYPR-NH2 (cysteine pairing not given here) [compound 82]” gave an IC50 of 0.69 nM.
With “H-P[Nle]D[Nle]RCSASVECAQKCLAAIGSIFGKCMNKKCKCYPR-OH (cysteine pairing not given here) [compound 96]” the IC50 was 0.32 nM.
“Ac-LRCSASVECKQKCLAAIGSIFGKC[Nle]NKKCKCYPR-OH (cysteine pairing not given here) [compound 104]” showed an IC50 of 0.9 nM.
For “H-S[Nle]D[Nle]RCSASVECKQKCLAAIGCIFGKC[Nle]NKKCKCYPC-NH2 (cysteine pairing not given here) [compound 85]”, the IC50 was 0.73 nM.
“H-CSASVECKQKCLKAIGCIFGKC[Nle]NKKCKCYPC-NH2 (cysteine pairing not given here) [compound 84]” was tested, and the IC50 was 1.1 nM.
With “H-S[Nle]D[Nle]RCSA[Abu]VECKQKCLKAIGSIFGKCMNKKCKCYPR-NH2 (cysteine pairing not given here) [compound 68]” the IC50 was 0.93 nM.
Work on “H-S[Nle]D[Nle]RCSASVECK[2-Amino-5-carboxypentanoyl]KCLKAIGSIFGKCMNKKCKCYPR-NH2 [compound 73]” yielded an IC50 of 0.52 nM.
